The supplement of paper PMC10307832

Assays:
Assay in all cases: relative viability (nuclei count vs DMSO), 5 days (fraction); higher = more cells survive
XMD8-85 + Linsitinib = compound: CN1CCN(CC1)C2=CC(=C(C=C2)NC3=NC=C4C(=N3)N(C5=CC=CC=C5C(=O)N4C)C)OC [XMD8-85] + C[C@]1(O)C[C@@H](c2nc(-c3ccc4ccc(-c5ccccc5)nc4c3)c3c(N)nccn32)C1 [Linsitinib] (partner 1 µM)
How it was run: (§1)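 Relative viability is defined as nuclei in treated wells over nuclei in vehicle wells. Duplicate plates were run and medians reported. Lung cancer cell lines in 1536-well plates were dosed by pin tool one day after seeding, with one drug or with a fixed anchor-drug dose plus five library-drug doses (not always all listed) in √10 steps, and nuclei were counted after 5 days.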

4EGI-1 + Bortezomib = compound: O=C(O)C(Cc1ccccc1[N+](=O)[O-])=NNc1nc(-c2ccc(Cl)c(Cl)c2)cs1 (mixture of isomers) [4EGI-1] + CC(C)C[C@H](NC(=O)[C@H](Cc1ccccc1)NC(=O)c1cnccn1)B(O)O [Bortezomib] (partner 0.002 µM)
How it was run: as §1

4EGI-1 + Navitoclax = compound: O=C(O)C(Cc1ccccc1[N+](=O)[O-])=NNc1nc(-c2ccc(Cl)c(Cl)c2)cs1 (mixture of isomers) [4EGI-1] + CC1(C)CCC(c2ccc(Cl)cc2)=C(CN2CCN(c3ccc(C(=O)NS(=O)(=O)c4ccc(N[C@H](CCN5CCOCC5)CSc5ccccc5)c(S(=O)(=O)C(F)(F)F)c4)cc3)CC2)C1 [Navitoclax] (partner 0.5 µM)
How it was run: as §1

4EGI-1 + Alpelisib = compound: O=C(O)C(Cc1ccccc1[N+](=O)[O-])=NNc1nc(-c2ccc(Cl)c(Cl)c2)cs1 (mixture of isomers) [4EGI-1] + Cc1nc(NC(=O)N2CCC[C@H]2C(N)=O)sc1-c1ccnc(C(C)(C)C(F)(F)F)c1 [Alpelisib] (partner 2 µM)
How it was run: as §1

Cell Line: NCI-H1792
- relative viability (XMD8-85 + Linsitinib; first compound 0.08 µM): 0.47
- relative viability (XMD8-85 + Linsitinib; first compound 0.253 µM): 0.521
- relative viability (XMD8-85 + Linsitinib; first compound 2.53 µM): 0.463
- relative viability (XMD8-85 + Linsitinib; first compound 8 µM): 0.556
- relative viability (4EGI-1 + Bortezomib; first compound 0.5 µM): 0.916
- relative viability (4EGI-1 + Bortezomib; first compound 1.581 µM): 0.392
- relative viability (4EGI-1 + Bortezomib; first compound 5 µM): 0.933
- relative viability (4EGI-1 + Bortezomib; first compound 15.81 µM): 0.89
- relative viability (4EGI-1 + Bortezomib; first compound 50 µM): 0.904
- relative viability (4EGI-1 + Navitoclax; first compound 0.5 µM): 0.618
- relative viability (4EGI-1 + Navitoclax; first compound 1.581 µM): 0.498
- relative viability (4EGI-1 + Navitoclax; first compound 5 µM): 0.607
- relative viability (4EGI-1 + Navitoclax; first compound 15.81 µM): 0.552
- relative viability (4EGI-1 + Navitoclax; first compound 50 µM): 0.542
- relative viability (4EGI-1 + Alpelisib; first compound 0.5 µM): 0.765
- relative viability (4EGI-1 + Alpelisib; first compound 1.581 µM): 0.684
- relative viability (4EGI-1 + Alpelisib; first compound 5 µM): 0.667
- relative viability (4EGI-1 + Alpelisib; first compound 15.81 µM): 0.533
- relative viability (4EGI-1 + Alpelisib; first compound 50 µM): 0.469
